In publication PMC11062899, “De novo development of small cyclic peptides that are orally bioavailable” (Nature Chemical Biology, 2023):
Several values for one entry are separate records, joined by “and”; a condition that tells them apart may be missing. Equal entries are not always repeated.

How the values were obtained:
[1] = Peptide stability in simulated intestinal fluid (SIF); format: in vitro ADME, porcine; conditions: pig, simulated gi fluid; 8 h, 37 °C, pH 6.8; read-out: Proteolytic stability: SIF (8 h) % remaining
In short: (§1)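 Peptide from a 1 mM DMSO stock was added to fluid pre-warmed at 37 °C. SGF was pH 1.2 NaCl with porcine pepsin (0.32 g per 100 ml), and SIF was pH 6.8 potassium phosphate with porcine pancreatin (1 g per 100 ml). Supernatant peptide was quantified by LC–MS, with residual expressed as T1/T0.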

[2] = target: T1, rat α-thrombin (Rattus norvegicus, UniProt P18292); assay: Protease inhibition, Ki for rat α-thrombin (fluorogenic substrate Z-Gly-Gly-Arg-AMC); format: biochemical; conditions: for slope normalized to DMSO, rat alpha thrombin inhibition: replicates R1-R3
T1 construct: rat α-thrombin (Molecular Innovations) were used at final concentrations of 2 nM and 3 nM; purchased Molecular Innovations
In short: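 Inhibition was measured as AMC fluorescence from 50 μM substrate, monitored for 30 min at 25 °C, relative to a peptide-free control. Human and rat enzymes were present at 2 nM and 3 nM final, respectively, in 50 mM Tris-HCl pH 7.4, 150 mM NaCl, 10 mM MgCl2, 1 mM CaCl2. Ki derives from fitted IC50 via Cheng–Prusoff.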

[3] = Passive artificial membrane permeability (PAMPA);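 on Permeability% Average: top well sample relative to theoretical equilibrium sample by TIC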
[4] = target: T2, porcine pepsin (Sus scrofa, UniProt P00791); assay: Peptide stability in simulated gastric fluid (SGF); format: in vitro ADME; conditions: pig, simulated gi fluid; 8 h, 37 °C, pH 1.2; read-out: Proteolytic stability: SGF (8 h) % remaining
T2 construct: 0.32 g of porcine pepsin (Sigma-Aldrich, P7125) was dissolved under gentle agitation; purchased Sigma-Aldrich P7125
T2 sequence (P00791 60-385): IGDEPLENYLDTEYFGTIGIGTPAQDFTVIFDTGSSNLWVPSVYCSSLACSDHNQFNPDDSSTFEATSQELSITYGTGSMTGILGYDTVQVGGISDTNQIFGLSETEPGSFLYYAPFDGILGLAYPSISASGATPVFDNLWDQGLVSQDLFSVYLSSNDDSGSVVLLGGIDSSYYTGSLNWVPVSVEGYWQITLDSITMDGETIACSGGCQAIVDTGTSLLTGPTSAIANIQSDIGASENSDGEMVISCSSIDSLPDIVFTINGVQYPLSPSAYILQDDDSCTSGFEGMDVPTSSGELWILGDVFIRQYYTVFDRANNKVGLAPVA
In short: as §1

[5] = Metabolic stability in rat liver microsomes (RLMs); conditions: for TIC value of compound, metabolic stability RLM: replicates R1-R3; for microsomal CLint / half-life: rat, microsomes

remaining at 8 h [1]: 93 ± 12%
IC50 ([2]; individual replicates R1-R3, read-out: IC50, rat alpha thrombin inhibition): 18.6 nM and 18.8 nM and 18.2 nM
Ki ([2]; individual replicates R1-R3, read-out: Ki, rat alpha thrombin inhibition): 10.3 nM and 10.4 nM and 10.1 nM
slope normalized to DMSO, rat alpha thrombin inhibition ([2]; peptide 1.00E+02 uM): 8.3 and 7.3 and 7.2
slope normalized to DMSO, rat alpha thrombin inhibition ([2]; peptide 1.19E-05 uM): 99.4 and 100.3 and 100.6
slope normalized to DMSO, rat alpha thrombin inhibition ([2]; peptide 1.22E-02 uM): 60.3 and 60.4 and 59.6
slope normalized to DMSO, rat alpha thrombin inhibition ([2]; peptide 1.25E+01 uM): 5.7 and 8.0 and 8.3
slope normalized to DMSO, rat alpha thrombin inhibition ([2]; peptide 1.53E-03 uM): 88.8 and 87.9 and 87.4
slope normalized to DMSO, rat alpha thrombin inhibition ([2]; peptide 1.56E+00 uM): 10.8 and 10.2 and 9.8
slope normalized to DMSO, rat alpha thrombin inhibition ([2]; peptide 1.91E-04 uM): 94.6 and 95.0 and 96.1
slope normalized to DMSO, rat alpha thrombin inhibition ([2]; peptide 1.95E-01 uM): 21.1 and 20.0 and 19.8
slope normalized to DMSO, rat alpha thrombin inhibition ([2]; peptide 2.38E-05 uM): 96.3 and 97.7 and 98.1
slope normalized to DMSO, rat alpha thrombin inhibition ([2]; peptide 2.44E-02 uM): 48.7 and 49.3 and 48.8
slope normalized to DMSO, rat alpha thrombin inhibition ([2]; peptide 2.50E+01 uM): 12.0 and 7.7 and 6.9
slope normalized to DMSO, rat alpha thrombin inhibition ([2]; peptide 3.05E-03 uM): 80.9 and 81.1 and 81.9
slope normalized to DMSO, rat alpha thrombin inhibition ([2]; peptide 3.12E+00 uM): 9.6 and 9.4 and 8.9
slope normalized to DMSO, rat alpha thrombin inhibition ([2]; peptide 3.81E-04 uM): 92.9 and 94.7 and 94.0
slope normalized to DMSO, rat alpha thrombin inhibition ([2]; peptide 3.91E-01 uM): 15.0 and 14.0 and 13.6
slope normalized to DMSO, rat alpha thrombin inhibition ([2]; peptide 4.77E-05 uM): 95.4 and 96.4 and 96.6
slope normalized to DMSO, rat alpha thrombin inhibition ([2]; peptide 4.88E-02 uM): 33.7 and 33.6 and 33.1
slope normalized to DMSO, rat alpha thrombin inhibition ([2]; peptide 5.00E+01 uM): 7.6 and 7.2 and 7.4
slope normalized to DMSO, rat alpha thrombin inhibition ([2]; peptide 6.10E-03 uM): 72.8 and 73.4 and 73.0
slope normalized to DMSO, rat alpha thrombin inhibition ([2]; peptide 6.25E+00 uM): 10.1 and 8.5 and 8.3
slope normalized to DMSO, rat alpha thrombin inhibition ([2]; peptide 7.63E-04 uM): 91.2 and 92.2 and 91.3
slope normalized to DMSO, rat alpha thrombin inhibition ([2]; peptide 7.81E-01 uM): 13.0 and 11.7 and 11.5
slope normalized to DMSO, rat alpha thrombin inhibition ([2]; peptide 9.54E-05 uM): 95.8 and 95.1 and 95.6
slope normalized to DMSO, rat alpha thrombin inhibition ([2]; peptide 9.77E-02 uM): 26.6 and 25.4 and 25.1
PAMPA permeability: % permeability ([3]; 50 μM, 12–18 h, acceptor concentration relative to equilibrium): 55 ± 8%
Permeability% (single replicates R1–R3) ([3]; 50 μM, 12 h (Fig. 6d)): 49.41% and 50.43% and 63.83%
Permeability% Average ([3]; 50 μM, 12 h (Fig. 6d)): 54.6%
Papp at 50 μM ([3]; PAMPA, pH 7.4): 7.76 ×10⁻⁶ cm/s
remaining at 8 h [4]: 96 ± 12%
TIC value of compound, metabolic stability RLM ([5]; 0 min): 14110188 (2×) and 12352514
TIC value of compound, metabolic stability RLM ([5]; 5 min): 13677902 and 11194388 and 11188088
TIC value of compound, metabolic stability RLM ([5]; 15 min): 10674204 and 7516980 and 9028625
TIC value of compound, metabolic stability RLM ([5]; 30 min): 7710068 and 5736371 and 6256299
TIC value of compound, metabolic stability RLM ([5]; 60 min): 3465219 and 2801334 and 3774480
Half Life, RLM ([5]; individual replicates R1-R3): 33.04 min and 32.99 min
microsomal CLint ([5]; CL, RLM, individual replicates R1-R3): 41.5 µL/min/mg
half-life ([5]; Half Life, RLM, individual replicates R1-R3): 33.4 min
microsomal CLint ([5]; Metabolic stability: RLM CL (ul/min/mg), RLMs, mean and SD, three measurements): 43 ± 1 µL/min/mg
half-life ([5]; pH 7.4, Metabolic stability: Half life T1/2 (min), RLMs, mean and SD, three measurements): 33 ± 1 min
Structure (SMILES): O=C1C[C@H]2CCCN2C(=O)[C@H](Cc2ccccc2)NC(=O)[C@@H](NC(=O)c2ccc(Cl)cc2)CCC=CCCCCN1 (mixture of isomers) [peptide 46]
CL, RLM ([5]; individual replicates R1-R3): 41.9492 ul/min/mg protein and 42.0127 ul/min/mg protein
